Measured values reported in patent publication US6737383B1, “Herbicidal oxadiazolidines” (priority 1999, dated 2004).

What was measured:
smallflower flatsedge = assay: Test B flood test smallflower flatsedge; format: in vivo, Cyperus difformis
Method in brief: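 Plants were grown to the 2-leaf stage before treatment with test chemical, then held in a greenhouse for twelve to sixteen days. Injury was visually rated against untreated controls on a 0–10 scale, where 0 is no effect and 10 is complete control.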

winter wheat [1] = assay: Test E winter wheat; format: in vivo, Triticum aestivum; conditions: Preemergence
winter wheat [2] = assay: Test E winter wheat; format: in vivo, Triticum aestivum; conditions: Postemergence
Method in brief: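 Plants were grown under normal greenhouse practice; for postemergence, in sandy loam soil mixed 60:40 with potting mix, treated at the 1- to 4-leaf stage. The compound was in a non-phytotoxic solvent carrying a surfactant. After roughly 21 to 28 days plants were scored visually against untreated plants.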

blackgrass [3] = assay: Test B pre/postemergence blackgrass; format: in vivo, Alopecurus myosuroides
Method in brief: (§1)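 Test chemicals in a non-phytotoxic solvent mixture with surfactant were sprayed preemergence onto planted seeds and postemergence onto plants 2 to 18 cm tall (1- to 4-leaf stage). After twelve to sixteen days in a greenhouse, injury was visually rated against untreated controls from 0 (no effect) to 10 (complete control).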

bedstraw = assay: Test B pre/postemergence bedstraw; format: in vivo, Galium aparine
Method in brief: as §1

blackgrass [4] = assay: Test E blackgrass; format: in vivo, Alopecurus myosuroides; conditions: Preemergence
surinam grass = assay: Test B pre/postemergence surinam grass; format: in vivo, Brachiaria decumbens
Method in brief: as §1

winter barley = assay: Test E winter barley; format: in vivo, Hordeum vulgare; conditions: Preemergence
Italian ryegrass = assay: Test E Italian ryegrass; format: in vivo, Lolium multiflorum; conditions: Preemergence
wild oat = assay: Test E wild oat; format: in vivo, Avena fatua; conditions: Preemergence
green foxtail = assay: Test E green foxtail; format: in vivo, Setaria viridis; conditions: Preemergence
[5] = Rate 500 g/ha, 0 to 100 scale (0 no effect, 100 complete control)
[6] = Rate 1000 g/ha, 0 to 100 scale, 0 no effect, 100 complete control
[7] = Preemergence, Rate 62 g/ha, scale of 0 to 10 where 0 is no effect and 10 is complete control
[8] = Preemergence, Rate 250 g/ha, scale of 0 to 10 where 0 is no effect and 10 is complete control
[9] = Preemergence, Rate 500 g/ha, scale of 0 to 10 where 0 is no effect and 10 is complete control
[10] = Rate 62 g/ha, Postemergence, scale 0 to 10, 0 no effect, 10 complete control
[11] = Rate 125 g/ha, Postemergence, scale of 0 to 10 where 0 is no effect and 10 is complete control
[12] = Rate 125 g/ha, Preemergence, scale of 0 to 10 where 0 is no effect and 10 is complete control
[13] = Rate 250 g/ha, Postemergence, scale of 0 to 10 where 0 is no effect and 10 is complete control
[14] = Rate 500 g/ha, Postemergence, scale 0 to 10, 0 no effect, 10 complete control

CC(C)N(C(=O)n1oc(=O)n(C2CCCC2)c1=O)c1ccc(Cl)cc1 [Compound 282]
S. Flatsedge plant response rating (smallflower flatsedge; Rate 62 g/ha, headed Pre-emergence (flood test species), scale 0 to 10 (0 no effect, 10 complete control)): 0 | S. Flatsedge plant response rating (smallflower flatsedge; Rate 125 g/ha, Pre-emergence, flood test species, scale 0 to 10 where 0 is no effect and 10 is complete control): 0 | S. Flatsedge plant response rating (smallflower flatsedge; Rate 250 g/ha, Pre-emergence, flood-test species, scale 0 to 10, 0 is no effect, 10 is complete control): 2 | S. Flatsedge plant response rating (smallflower flatsedge; Rate 500 g/ha, Pre-emergence, flood test species, scale 0 to 10 (0 no effect, 10 complete control)): 4 | Wheat (winter) plant response rating (0 to 100 scale) (winter wheat [1]; Rate 250 g/ha): 60 | Plant response rating, Wheat (winter) (winter wheat [1]; [5]): 60 | Plant response rating, Wheat (winter) (winter wheat [1]; [6]): 70 | Plant response rating, Wheat (winter) (winter wheat [2]; Rate 1000 g/ha, 0 to 100 scale where 0 is no effect and 100 is complete control): 50 | Wheat (winter) plant response rating (winter wheat [2]; Rate 250 g/ha, 0 to 100 scale where 0 is no effect and 100 is complete control): 20 | Plant response rating, Wheat (winter) (winter wheat [2]; Rate 500 g/ha, 0 to 100 scale, 0 is no effect, 100 is complete control): 30 | Blackgrass plant response rating (blackgrass [3]; [7]): 0 | Blackgrass plant response rating (blackgrass [3]; [8]): 4 | Plant response rating, Blackgrass (blackgrass [3]; [9]): 8 | Blackgrass plant response rating (blackgrass [3]; [10]): 0 | Blackgrass plant response rating (blackgrass [3]; [11]): 2 | Blackgrass plant response rating (blackgrass [3]; [12]): 1 | Plant response rating, Blackgrass (blackgrass [3]; [13]): 5 | Blackgrass plant response rating (blackgrass [3]; [14]): 8 | Bedstraw plant response rating (bedstraw; [7]): 0 | Bedstraw plant response rating (bedstraw; [8]): 2 | Plant response rating, Bedstraw (bedstraw; [9]): 2 | Bedstraw plant response rating (bedstraw; [10]): 5 | Bedstraw plant response rating (bedstraw; [11]): 5 | Plant response rating, Bedstraw (bedstraw; [13]): 7 | Bedstraw plant response rating (bedstraw; [14]): 8 | Blackgrass plant response rating (0 to 100 scale) (blackgrass [4]; Rate 250 g/ha): 60 | Plant response rating, Blackgrass (blackgrass [4]; [5]): 60 | Plant response rating, Blackgrass (blackgrass [4]; [6]): 70 | B. signalgrass plant response rating (surinam grass; [7]): 0 | B. signalgrass plant response rating (surinam grass; [8]): 2 | Plant response rating, B. signalgrass (surinam grass; [9]): 7 | B. signalgrass plant response rating (surinam grass; [10]): 0 | B. signalgrass plant response rating (surinam grass; [11]): 0 | B. signalgrass plant response rating (surinam grass; [12]): 1 | Plant response rating, B. signalgrass (surinam grass; [13]): 0 | B. signalgrass plant response rating (surinam grass; [14]): 2 | Barley (winter) plant response rating (0 to 100 scale) (winter barley; Rate 250 g/ha): 50 | Plant response rating, Barley (winter) (winter barley; [5]): 50 | Plant response rating, Barley (winter) (winter barley; [6]): 70 | I. Ryegrass plant response rating (0 to 100 scale) (Italian ryegrass; Rate 250 g/ha): 70 | Plant response rating, I. Ryegrass (Italian ryegrass; [5]): 70 | Plant response rating, I. Ryegrass (Italian ryegrass; [6]): 70 | Wild oat plant response rating (0 to 100 scale) (wild oat; Rate 250 g/ha): 70 | Plant response rating, Wild oat (wild oat; [5]): 70 | Plant response rating, Wild oat (wild oat; [6]): 80 | Green foxtail plant response rating (0 to 100 scale) (green foxtail; Rate 250 g/ha): 80 | Plant response rating, Green foxtail (green foxtail; [5]): 100 | Plant response rating, Green foxtail (green foxtail; [6]): 100
